Data as given in the pKa sets of Baltruschat and Czodrowski (2020).

Structure (SMILES)	pKa (basic group)	pKa (acidic group)
C1=C(c2ccccc2)C2CCN1CC2	9.1	
CN1CC[C@]23c4c5ccc(O)c4O[C@H]2[C@@H](O)C=C[C@H]3[C@H]1[C@H]5O	7.13	9.06
N#CC1=CN2CCC1CC2	5.84	
CCN(CC)CC(=O)Nc1ccccc1C	7.95	
COc1c(O)ccc2c1C[N+]1(C)CCc3cc4c(cc3[C@@H]1C2)OCO4 (stereo partly drawn)		8.45
CC(O)CNCC[NH3+] (stereo not drawn)	6.94	
COc1ccc(CCN)cc1	9.79	
O=[N+]([O-])c1ccc2[nH]c(CO)nc2c1	2.21	
C/C(=C\c1ccccc1)CC(=O)O		5.35
COCC(C)CN(C)C (stereo not drawn)	9.69	
[Se-]c1ncnc2nc[nH]c12	7.33	
Nc1ccc2nnc3ccccc3c2c1	6.68	
Nc1c2ccccc2[nH+]c2cccc(O)c12		5.61
Cc1ccc2c(c1)cc(C)n2C	0.5	
c1c[nH]c(P(c2ncc[nH]2)c2[nH]cc[nH+]2)n1	6.59	
CC(=O)Oc1cccc2cccc(O)c12		9.69
CC(C)N1C[Si](C)(C)O[Si](C)(C)C1	10	
O=C([O-])C[NH+](CC(=O)[O-])Cc1ccccc1O		8.17
C[n+]1c2ccccc2cc2cc(N)ccc21		9.8
Cc1cc(-n2[nH+]c(C)cc2C)[nH]n1	-2.4	
Cc1ccnc(NS(=O)(=O)c2ccc(N)cc2)n1	2.08	6.59
C[S+](C)CC(=O)c1ccccc1		8.6
CCN(C)CCOCCN(CC)CC	10.1	
CN1C(=N)C(C)(C)c2ccccc21	9.25	

Structure (SMILES)	pKa (basic group)	pKa (acidic group)
[NH3+]CCCC#CC#CCCC(=O)O		4.12
COc1ccc(-c2cc3ccncc3[nH]2)c(OC)c1	8.29	
N[C@H]1C[C@@H]1[NH3+]	5.9	
Cc1cc(O)c(C(C)C)cc1Nc1ccc(O)cc1		9.85
C[N+](C)(C)NC(=O)c1ccc([N+](=O)[O-])cc1		3.11
O=S(=O)(Nc1ccc(Br)cc1)c1ccccc1		7.78
C[NH2+]CCCNc1c2ccccc2nc2cccc([N+](=O)[O-])c12	6.2	
CCCn1cnc2ccccc21	5.46	
CCN(CC)c1ccc(C)cc1	7.18	
Cc1cccc(CO)n1	5.2	
COc1cc(C(=O)O)ccc1C		4.13
O=[N+]([O-])CSc1ccccc1		6.67
[NH3+]c1cccc(-c2nc3ccccc3s2)c1	0.07	
Cc1nc2c(=O)[nH]c(=O)[nH]c2n1C		6.2
O=S(=O)(Nc1cccc(C(F)(F)F)c1)C(F)(F)F		3.5
O=C1OC2C3CC4C2C4(C(=O)O)C13Br (stereo not drawn)		3.5
CCCCCNCCCCC	11.2	
Cc1cc(C)c2nc(C)cc(N)c2c1	10.4	
CC[C@]12CCCN3CCc4c(n(c5ccccc45)CC1)[C@@H]32	6.9	
C[NH+]1CCCC1c1cccnc1 (stereo not drawn)	3.01	
O=C(O)c1ccc[nH+]c1[O-]		5.28
O=C(O)C1C2CCC1CC2 (stereo not drawn)		4.85
C[NH+]1CCCC1c1cncc2[nH]c3ccccc3c12 (stereo not drawn)	5.17	
N#CC(C#N)Cc1ccc(Cl)cc1		11.5

Structure (SMILES)	pKa (basic group)	pKa (acidic group)
O=S1(=O)N=CNc2ncccc21		7.03
CC(C)OO		12.1
CSS/C(CCO)=C(/C)N(C=O)Cc1cnc(C)nc1N	5.59	
CCC(=O)C(CC(C)N1CCOCC1)(c1ccccc1)c1ccccc1 (stereo not drawn)	6.89	
CN1CC=CCN1C	5.7	
O=C([O-])C(CO)NCc1cc([N+](=O)[O-])ccc1[O-] (stereo not drawn)	9.75	
[O-]c1nc(NO)cc[n+]1[C@H]1O[C@@H](CO)[C@H](O)[C@@H]1O		10.5
C(C[NH2+]CCc1nnn[nH]1)[NH2+]CCc1nnn[n-]1		4.09
Cc1cc(C)c2ccc3c(C)cc(C)nc3c2n1	6.5	
COc1cc2c(cc1OC)[C@]13CCN4CC5=CCO[C@@H]6CC(=O)N2[C@@H]1[C@@H]6[C@@H]5C[C@@H]43	5.86	
c1ccc(-c2ccn[nH]2)nc1	4.46	
C#CC(C)(C)N(C)C(C)C	8.7	
CCc1cc(/N=N/c2ccc(N(C)C)cc2)ccc1C	2.59	
Nc1nnn[nH]1	1.81	5.98
C[C@@H]1CN[C@@H](C)CN1	9.76	
CC(C)NCCCCCCNC(C)C	11.2	
OC(CN1CCCC1)C[NH+]1CCCC1	7.75	
Cc1cccc(C)c1NN=C(C#N)C#N	-0.82	6.6
CCCCCCCCCCN(CC(C)O)CC(C)O (stereo not drawn)	7.6	
Cc1cc(C(F)(F)F)n[nH]1	-0.5	12.3
CN(C)/N=C(\N)CC[Si](C)(C)C	10.2	
Clc1ccc(/C=C/c2nnnn2-c2ccccc2)cc1	-2.54	
NCC(=O)NN	7.69	
CC[NH+]1CCC[C@@H]1CNC(=O)c1c(OC)ccc(Cl)c1O		7.07

Structure (SMILES)	pKa (basic group)	pKa (acidic group)
CCN(CC)C(=S)NC(=O)c1cccc(F)c1		8.21
NS(=O)(=O)c1nccs1		8.25
Cc1ccc(C(=S)Nc2ccc(F)cc2)cc1		11
CO/C(C)=C\C(=O)O		5.81
NCC[NH3+]	7.14	
Cc1cc(C(C)C)ccc1O		10.6
CN(C)c1nc2c(s1)CCCC2	6.16	
[SH2+]c1ccc2ncccc2c1	3.95	
O=[N+]([O-])c1cc(-c2ccccc2)ccc1O		6.73
CCN(CC)C(C)(C)C=O	8.3	
N#CC(C#N)=NNc1cccc(O)c1		6.45
NCC[NH2+]CCCO	6.78	
CN(C)CCC/N=C(\c1ccccc1)c1ccccc1-c1ccccc1	9.2	
CC1(C)CCC(C2CCC(C)(C)N2)N1 (stereo not drawn)	10.3	
O=P(C1CCCCC1)(C1CCCCC1)C1CCCCC1	5.04	13.7
CC(C)C[C@H](N)C(N)=O		7.84
CCC1(C2=CCCCC2)C(=O)[N-]C(=S)NC1=O		11.8
Cc1ccc(SC2CC(=O)N2)cc1 (stereo not drawn)		13.4
COc1cc(C(C)=O)ccc1O		7.65
CCC(N)CCCl (stereo not drawn)	8.53	
CSc1ccc(N)cc1I	3.44	
[NH3+]CCCCCCNC(=S)S		2.95
C/C(N)=N/N(C)C	10	
CC(=O)Nc1c(C)n(C)n(-c2ccccc2)c1=O	0.18	

Structure (SMILES)	pKa (basic group)	pKa (acidic group)
CO		15.5
c1c(CN2CCNCC[NH2+]CC2)n[nH]c1CN1CCNCCNCC1	10.5	
Cc1ccc(C2CCC[NH+]2C)cn1 (stereo not drawn)	3.78	
CN(C)c1ccc(C(=S)Nc2ccccc2)cc1		11.2
CC[NH+](CC)CCN	6.76	
CNC(C)(C)C(=O)[O-]	10.8	
c1ccc(CN(CC2CO2)CC2CO2)cc1 (stereo not drawn)	5.75	
C[C@]1(N)C[C@@H]1N	9.06	
CCC1(CC)OC(=O)NC1=O		5.7
Nc1[nH]cc(O)[nH+]1		4.8
Cc1ccc(C(=O)C[S+](C)C)cc1		8.9
CNc1ccc(C)cc1	5.36	
O=P1(O)CCC1		3.07
O=S(=O)([N-]c1ncccn1)c1ccc(O)cc1		9
[O-]c1ccnnc1	8.68	
Cc1nnc(C)n1N		9.85
COc1cccc(CN2CC(O[Si](C)(C)C)C2)c1	7.81	
O=C([O-])c1cc(-c2ccccc2)nnc1NCCN1CCOCC1	7.07	
C[C@H]1[C@@H](N)[C@@H](C)[C@@H]([NH3+])[C@@H](C)[C@H]1N	6.73	
Cc1ccc2[nH]nnc2c1		8.9
Nc1cn[nH]c1	5.57	
